Test results from US20070244173A1, “6,7-Dihydroxy-8-Phenyl-3,6,7,8-Tetrahydro-Chromeno [7,8-d] Imidazole Derivatives and Their Use as Gastric Acid Secretion Inhibitors” (Altana Pharma AG, priority 2004, published 2007).

What was measured:
[1] = test system: pentagastrin-stimulated acid secretion of the perfused rat stomach; test: Secretion-inhibiting action on the perfused rat stomach (pentagastrin-stimulated acid secretion, intraduodenal administration in vivo); settings: iv, dose 2 μmol/kg i.d., anesthetized female CD rat, pentagastrin 1 μg/kg i.v. infusion
Source text: Testing of the Secretion-Inhibiting Action on the Perfused Rat Stomach
In Table A which follows, the influence of the compounds of the formula 1 according to the invention on the pentagastrin-stimulated acid secretion of the perfused rat stomach after intraduodenal administration in vivo is shown.
The abdomen of anesthetized rats (CD rat, female, 200-250 g; 1.5 g/kg i.m. urethane) was opened after tracheotomy by a median upper abdominal incision and a PVC catheter was fixed transorally in the esophagus and another via the pylorus such that the ends of the tubes just projected into the gastric lumen. The catheter leading from the pylorus led outward into the right abdominal wall through a side opening.
After thorough rinsing (about 50-100 ml), warm (37° C.) physiological NaCl solution was continuously passed through the stomach (0.5 ml/min, pH 6.8-6.9; Braun-Unita I). The pH (pH meter 632, glass electrode EA 147; φ=5 mm, Metrohm) and, by titration with a freshly prepared 0.01N NaOH solution to pH 7 (Dosimat 665 Metrohm), the secreted HCl were determined in the effluent in each case collected at an interval of 15 minutes.
The gastric secretion was stimulated by continuous infusion of […] (=1.65 ml/h) of i.v. pentagastrin (left femoral vein) about 30 min after the end of the operation (i.e. after determination of 2 preliminary fractions). The substances to be tested were administered intraduodenally in a 2.5 ml/kg liquid volume 60 min after the start of the continuous pentagastrin infusion. The body temperature of the animals was kept at a constant 37.8-38° C. by infrared irradiation and heat pads (automatic, stepless control by means of a rectal temperature sensor).

Row | melting point | SMILES | inhibition in vivo at 2 µmol/kg [1]
1 | 61 °C | CC=Cn1c(C)nc2c3c(ccc21)[C@@H](OCCOC)[C@H](O)[C@@H](c1ccccc1)O3 [Example 12, (6R,7S,8R)-7-Hydroxy-6-(2-methoxy-ethoxy)-2-methyl-8-phenyl-3-propenyl-3,6,7,8-tetrahydro-chromeno[7,8-d]imidazole] | –
2 | 117 °C | COCCO[C@@H]1c2ccc3[nH]c(C)nc3c2O[C@H](c2ccccc2)[C@H]1O [Example 13, (6R,7S,8R)-7-Hydroxy-6-(2-methoxy-ethoxy)-2-methyl-8-phenyl-3,6,7,8-tetrahydro-chromeno[7,8-d]imidazole] | –
3 | 117 °C | C=CCn1c(C)nc2c3c(ccc21)[C@@H](OCCF)[C@H](O)[C@@H](c1ccccc1)O3 [Example 14, (6R,7S,8R)-3-Allyl-7-hydroxy-6-(2-fluoro-ethoxy)-2-methyl-8-phenyl-3,6,7,8-tetrahydro-chromeno[7,8-d]imidazole] | –
4 | 213 °C | CC=Cn1c(C)nc2c3c(ccc21)[C@H]1OCCO[C@@H]1[C@@H](c1ccccc1)O3 [Example 15, (5S,6R,10R)-16-Methyl-6-phenyl-17-propenyl-2,3,5,6,10,17-hexahydro-1,4,7-trioxa-15,17-diaza-cyclopenta[a]phenanthrene] | > 50%
5 | 260 °C | Cc1nc2c3c(ccc2[nH]1)[C@H]1OCCO[C@@H]1[C@@H](c1ccccc1)O3 [Example 16, (5S,6R,10R)-16-Methyl-6-phenyl-2,3,5,6,10,17-hexahydro-1,4,7-trioxa-15,17-diaza-cyclopenta[a]phenanthrene] | > 50%
6 | 183 °C | COCCO[C@@H]1c2ccc3c(nc(C)n3C3CC3)c2O[C@H](c2ccccc2)[C@H]1O [Example 18, (6R,7S,8R)-3-Cyclopropyl-7-hydroxy-6-(2-methoxy-ethoxy)-2-methyl-8-phenyl-3,6,7,8-tetrahydro-chromeno[7,8-d]imidazole] | < 50%
7 | 218 °C | COCCO[C@H]1c2ccc3c(nc(C)n3C3CC3)c2O[C@H](c2ccccc2)[C@H]1O [Example 19, (6S,7S,8R)-3-Cyclopropyl-7-hydroxy-6-(2-methoxy-ethoxy)-2-methyl-8-phenyl-3,6,7,8-tetrahydro-chromeno[7,8-d]imidazole] | > 50%
8 | 157 °C | COCCO[C@@H]1c2ccc3c(nc(C4CC4)n3C)c2O[C@H](c2ccccc2)[C@H]1O [Example 21, (6R,7S,8R)-2-Cyclopropyl-7-hydroxy-6-(2-methoxy-ethoxy)-3-methyl-8-phenyl-3,6,7,8-tetrahydro-chromeno[7,8-d]imidazole] | –
9 | 133 °C | COCCO[C@H]1c2ccc3c(nc(C4CC4)n3C)c2O[C@H](c2ccccc2)[C@H]1O [Example 22, (6S,7S,8R)-2-Cyclopropyl-7-hydroxy-6-(2-methoxy-ethoxy)-3-methyl-8-phenyl-3,6,7,8-tetrahydro-chromeno[7,8-d]imidazole] | –

The remaining lines, values behind:

Row | SMILES | melting point | inhibition in vivo at 2 µmol/kg [1]
10 | COCCO[C@@H]1c2ccc3c(nc(C)n3C)c2O[C@H](c2ccccc2)[C@H]1O [Example 1, (6R,7S,8R)-7-Hydroxy-6-(2-methoxy-ethoxy)-2,3-dimethyl-8-phenyl-3,6,7,8-tetrahydro-chromeno[7,8-d]imidazole] | – | > 50%
11 | COCCO[C@H]1c2ccc3c(nc(C)n3C)c2O[C@H](c2ccccc2)[C@H]1O [Example 2, (6S,7S,8R)-7-Hydroxy-6-(2-methoxy-ethoxy)-2,3-dimethyl-8-phenyl-3,6,7,8-tetrahydro-chromeno[7,8-d]imidazole] | 163 °C | < 50%
12 | Cc1nc2c3c(ccc2n1C)[C@@H](O)[C@H](O)[C@@H](c1ccccc1)O3 [Example 3, (6R,7S,8R)-6,7-Dihydroxy-2,3-dimethyl-8-phenyl-3,6,7,8-tetrahydro-chromeno[7,8-d]imidazole] | 262.5 °C | < 50%
13 | CCO[C@@H]1c2ccc3c(nc(C)n3C)c2O[C@H](c2ccccc2)[C@H]1O [Example 4, (6R,7S,8R)-6-Ethoxy-7-hydroxy-2,3-dimethyl-8-phenyl-3,6,7,8-tetrahydro-chromeno[7,8-d]imidazole] | 222 °C | > 50%
14 | Cc1nc2c3c(ccc2n1C)[C@@H](OCCF)[C@H](O)[C@@H](c1ccccc1)O3 [Example 5, (6R,7S,8R)-6-(2-Fluoro-ethoxy)-7-hydroxy-2,3-dimethyl-8-phenyl-3,6,7,8-tetrahydro-chromeno[7,8-d]imidazole] | 226 °C | > 50%
15 | Cc1nc2c3c(ccc2n1C)[C@H]1OCCO[C@@H]1[C@@H](c1ccccc1)O3 [Example 6, (5S,6R,10R)-16,17-Dimethyl-6-phenyl-2,3,5,6,10,17-hexahydro-1,4,7-trioxa-15,17-diaza-cyclopenta[a]phenanthrene] | 307 °C | > 50%
16 | COCCO[C@@H]1c2ccc3c(nc(C)n3C)c2O[C@H](c2ccccc2)[C@H]1OC(=O)COC [Example 7, (6R,7S,8R)-7-(2-Methoxy-acetoxy)-6-(2-methoxy-ethoxy)-2,3-dimethyl-8-phenyl-3,6,7,8-tetrahydro-chromeno[7,8-d]imidazole] | 200 °C | > 50%
17 | COCCO[C@@H]1c2ccc3c(nc(C)n3C)c2O[C@H](c2ccccc2)[C@H]1OC(=O)CN(C)C [Example 8, (6R,7S,8R)-7-(2-Dimethylamino-acetoxy)-6-(2-methoxy-ethoxy)-2,3-dimethyl-8-phenyl-3,6,7,8-tetrahydro-chromeno[7,8-d]imidazole] | 175 °C | > 50%
18 | Cc1nc2c3c(ccc2n1C)[C@@H](OCC(F)F)[C@H](O)[C@@H](c1ccccc1)O3 [Example 9, (6R,7S,8R)-7-Hydroxy-6-(2,2-difluoro-ethoxy)-2,3-dimethyl-8-phenyl-3,6,7,8-tetrahydro-chromeno[7,8-d]imidazole] | 249 °C | > 50%
19 | Cc1nc2c3c(ccc2[nH]1)[C@@H](O)[C@H](O)[C@@H](c1ccccc1)O3 [Example 10, (6R,7S,8R)-6,7-Dihydroxy-2-methyl-8-phenyl-3,6,7,8-tetrahydro-chromeno[7,8-d]imidazole] | 163 °C | –
20 | C=CCn1c(C)nc2c3c(ccc21)[C@@H](OCCOC)[C@H](O)[C@@H](c1ccccc1)O3 [Example 11, (6R,7S,8R)-3Allyl-7-hydroxy-6-(2-methoxy-ethoxy)-2-methyl-8-phenyl-3,6,7,8-tetrahydro-chromeno[7,8-d]imidazole] | 79 °C | < 50%
21 | Cc1nc2c3c(ccc2n1C1CC1)[C@@H](O)[C@H](O)[C@@H](c1ccccc1)O3 [Example 17, (6R,7S,8R)-3-Cyclopropyl-6,7-dihydroxy-2-methyl-8-phenyl-3,6,7,8-tetrahydro-chromeno[7,8-d]imidazole] | – | < 50%
